{"source": "paper PMC12281475", "about": "“Mediator Kinase Inhibitor Selectivity and Activity in Colorectal Cancer” (ACS Chemical Biology, 2025)", "system": "COLO205 cells", "assay": "Phospho-proteome profiling (CDK-motif antibody enrichment, LC-MS/MS)", "type": "cell-based, human", "conditions": "6 H", "description": "We phospho-proteome profiled COLO205 cells to identify Mediator kinase substrates following chemical inhibition of Mediator kinase activity. Given the confirmed CDK8/19 selectivity of our compounds in binding and enzymatic activity assays, we employed a pool of antibodies selective for the proline-rich motifs phosphorylated by the CDK family to enrich potential CDK8/19 substrates for LC-MS/MS analysis.\nAdherent COLO205 cells were lysed with a urea buffer, lysates were reduced with DTT, alkylated with iodoacetimide and digested with trypsin-tosylphenylalanyl chloromethyl ketone. Digested peptides were immunoprecipitated using a pool of motif antibodies from Cell Signaling Technologies (US) comprising: phospho-MAPK substrate (PXS*P or S*PXR/K, #2325, RRID:AB_331820), phospho-CDKs substrate ((K/H)-S*P, #2324; RRID:AB_2244779), phospho-PLK binding motif (ST*P, #5243; RRID:AB_10891778) and phospho-tPE motif (T*PE, #3004; RRID:AB_10890649)-of phospho-MAPK (2325), phospho-CDK (2324), phospho-PLK (5243) and phospho-tPE (C3004) motif-recognizing antibodies immobilized onto protein A/G beads. Immunoprecipitated peptides were analyzed using an LTQ-Orbitrap-Velos. Sequences were assigned to the MS/MS spectra and evaluated using SEQUEST 3G and SORCERER 2 (Sage-N Research v4.0, Milpitas). Quantitative data was evaluated and clustered in Spotfire Decision Site (www.spotfire.tibco.com) and normalized using quartile normalization. Functional annotation and pathway analysis used DAVID (https://david.ncifcrf.gov/). […]\nPhospho-proteome analyses\nAdherent COLO205 cells were washed with PBS and cells lysed using urea lysis buffer (9 M Urea, 20 mM HEPES, pH 8.0, 1 mM beta-glycerophosphate, 1 mM sodium vanadate, 2.5 mM sodium pyrophosphate) and stored at -80 °C prior to analysis. The supernatants were reduced with 100 mM DTT for 30 minutes at 55 °C, followed by alkylation with 50 mM iodoacetimide for 15 minutes at ambient temperature in the dark.\nThe samples were diluted in 20 mM HEPES, pH 8.0 and digested overnight with 10 ug/mL trypsin-tosylphenylalanyl chloromethyl ketone in 1 mM HCl. Digested peptides were acidified with 1% formic acid and then desalted over 360-mg SEP PAK C18 columns (Waters, UK). Peptides were eluted with 40% acetonitrile in 0.125% formic acid, dried under a vacuum and the lyophilised peptides used for immunoprecipitation.\nA pool of motif antibodies from Cell Signaling Technologies (US) comprising: phospho-MAPK substrate (PXS*P or S*PXR/K, #2325, RRID:AB_331820), phospho-CDKs substrate ((K/H)S*P, #2324; RRID:AB_2244779), phospho-PLK binding motif (ST*P, […]\nRRID:AB_10890649), were immobilised onto protein A/G beads overnight at 4 °C. The lyophilised peptides were resuspended in MOPS buffer (50 mM MOPS, pH 7.2, 10 mM KH2PO4, 50 mM NaCl) and centrifuged for 5 mins at 13,500 rpm in an Eppendorf benchtop microcentrifuge. The supernatants were incubated with the motif-bound beads for 2.5 hours at 4 °C . The beads were harvested by centrifugation at 4000 rpm in an Eppendorf benchtop microcentrifuge for 5 mins, washed with MOPS buffer twice and washed again 5 times with deionised water. The peptides were eluted off the beads using 0.125% formic acid, were desalted and dried under a vacuum. The lyophilised immunoprecipitated peptides were resuspended in 0.125% formic acid and separated on a capillary column packed with Magic C18 AQ reversed-phase resin.\nPeptides were eluted using a 72-minute linear gradient of acetonitrile in 0.125% formic acid delivered at 280nL/min. Samples were analysed using an LTQ-Orbitrap-Velos.\nMS Parameter Settings were: MS Run Time 96 min, MS1 Scan Range (300.0 – 1500.00), Top 20 MS/MS (Min Signal 500, Isolation Width 2.0, Normalized Coll.\nCharge State Rejection Enabled, Charge State 1+ Rejected, Dynamic Exclusion Enabled, Repeat Count 1, Repeat Duration 35.0, Exclusion List Size 500, Exclusion Duration 40.0, Exclusion Mass Width Relative to Mass, Exclusion Mass Width 10ppm). […]", "key": {"[1]": {"conditions": "FAM122A peptide 69 - hglllpaSpvr - 79"}, "[2]": {"conditions": "FBLIM1 peptide 40 - grpweapapmkTpeaglagrpspwttpgr - 68"}, "[3]": {"conditions": "FBXW9 peptide 43 - sglafsrpsqlsTpaaSpSasepr - 66"}, "[4]": {"conditions": "FBXW9 peptide 48 - srpsqlStpaaSpsasepr - 66"}, "[5]": {"conditions": "FOSL1 peptide 235 - ftypStpepcasahr - 249"}, "[6]": {"conditions": "GATA6 peptide 26 - afparepStppSpisssssscsr - 48"}, "[7]": {"conditions": "GOLGA4 peptide 7 - qkiseeqqqlqqalapaqassnSStptrm#rsr - 39"}, "[8]": {"conditions": "HCFC1 peptide 1483 - avttvtqSTpvpgpsvpppeelqvSpgpr - 1511"}, "[9]": {"conditions": "HMCES peptide 152 - sgsigaadSpenwek - 166"}, "[10]": {"conditions": "HSPA12A peptide 99 - tpttillTper - 109"}, "[11]": {"conditions": "INCENP peptide 259 - iaqvSpgprdSpafpdSpwrer - 280"}, "[12]": {"conditions": "KANSL1 peptide 955 - ttpqlgSanpSTpqpaSpdvssshslseyShgqSpr - 989"}, "[13]": {"conditions": "KIAA1522 peptide 509/569 - rpprSper - 517/576"}, "[14]": {"conditions": "KLF6 peptide 140 - lsssvtStppsSpelsrepsqlwgcvpgelpSpgkvr - 176"}, "[15]": {"conditions": "KMT2A peptide 3025 - nssTpglqvpvsptvpiqnqk - 3045"}, "[16]": {"conditions": "L3MBTL2 peptide 60 - eagelpTSplhllSpgTpr - 78"}, "[17]": {"conditions": "LARP4B peptide 725 - rlSreqSTppkSpq - 738"}, "[18]": {"conditions": "LASP1 peptide 60 - qsftmvadTpenlr - 73"}, "[19]": {"conditions": "LCOR peptide 1212 - arpstkTpessaaqr - 1226"}, "[20]": {"conditions": "LIMD1 peptide 190 - wgdkpgvSpSiglsvgsgwpSspgsdpplpkpcgdhplnhr - 230"}, "[21]": {"conditions": "LMNA peptide 12 - sgaqaSstplSptr - 25"}, "[22]": {"conditions": "LMO7 peptide 595/929 - YngdvedikrTpnnvvSTpapSpdasqlasslssqk - 630/964"}, "[23]": {"conditions": "LSM14B peptide 85 - aqhtlpqdpaivqsslgsasaSpfqphvpYSpfr - 118"}, "[24]": {"conditions": "MAP7 peptide 668 - vtvesTpdlekqpnengvsvqnenfeeiinlpigskpsr - 706"}, "[25]": {"conditions": "MCM4 peptide 38 - rgedststgelqpmptSpgvdlqSpaaqdvl - 68"}}, "data": [{"molecule": "Cn1cc(-c2ccc(-c3cncc(Cl)c3N3CCC4(CCNC4=O)CC3)cc2)cn1", "note": "[CCT251545]", "values": [{"measurement": "MEAN MS SIGNAL CMPD 1 6 H", "setting": "EZH2 peptide 46 - grlpnnssrpstpTinvlesk - 376", "result": 31995}, {"measurement": "CMPD 1/DMSO", "setting": "[1]", "result": 2.184}, {"measurement": "MEAN MS SIGNAL CMPD 1 6 H", "setting": "[1]", "result": 196079}, {"measurement": "CMPD 1/DMSO", "setting": "[2]", "result": 0.573}, {"measurement": "MEAN MS SIGNAL CMPD 1 6 H", "setting": "[2]", "result": 86595}, {"measurement": "CMPD 1/DMSO", "setting": "[3]", "result": 0.530}, {"measurement": "MEAN MS SIGNAL CMPD 1 6 H", "setting": "[3]", "result": 311610}, {"measurement": "CMPD 1/DMSO", "setting": "[4]", "result": 0.400}, {"measurement": "MEAN MS SIGNAL CMPD 1 6 H", "setting": "[4]", "result": 48006}, {"measurement": "CMPD 1/DMSO", "setting": "[5]", "result": 0.504}, {"measurement": "MEAN MS SIGNAL CMPD 1 6 H", "setting": "[5]", "result": 66830}, {"measurement": "CMPD 1/DMSO", "setting": "[6]", "result": 2.355}, {"measurement": "MEAN MS SIGNAL CMPD 1 6 H", "setting": "[6]", "result": 187382}, {"measurement": "CMPD 1/DMSO", "setting": "[7]", "result": 2.322}, {"measurement": "MEAN MS SIGNAL CMPD 1 6 H", "setting": "[7]", "result": 104624}, {"measurement": "CMPD 1/DMSO", "setting": "[8]", "result": 0.405}, {"measurement": "MEAN MS SIGNAL CMPD 1 6 H", "setting": "[8]", "result": 16700}, {"measurement": "CMPD 1/DMSO", "setting": "[9]", "result": 0.453}, {"measurement": "MEAN MS SIGNAL CMPD 1 6 H", "setting": "[9]", "result": 63819}, {"measurement": "CMPD 1/DMSO", "setting": "[10]", "result": 0.556}, {"measurement": "MEAN MS SIGNAL CMPD 1 6 H", "setting": "[10]", "result": 24367}, {"measurement": "CMPD 1/DMSO", "setting": "[11]", "result": 0.465}, {"measurement": "MEAN MS SIGNAL CMPD 1 6 H", "setting": "[11]", "result": 323217}, {"measurement": "CMPD 1/DMSO", "setting": "[12]", "result": 0.484}, {"measurement": "MEAN MS SIGNAL CMPD 1 6 H", "setting": "[12]", "result": 12101}, {"measurement": "CMPD 1/DMSO", "setting": "[13]", "result": 1.797}, {"measurement": "MEAN MS SIGNAL CMPD 1 6 H", "setting": "[13]", "result": 115710}, {"measurement": "CMPD 1/DMSO", "setting": "[14]", "result": 0.607}, {"measurement": "MEAN MS SIGNAL CMPD 1 6 H", "setting": "[14]", "result": 32118}, {"measurement": "CMPD 1/DMSO", "setting": "[15]", "result": 2.063}, {"measurement": "MEAN MS SIGNAL CMPD 1 6 H", "setting": "[15]", "result": 28229}, {"measurement": "CMPD 1/DMSO", "setting": "[16]", "result": 0.490}, {"measurement": "MEAN MS SIGNAL CMPD 1 6 H", "setting": "[16]", "result": 91427}, {"measurement": "CMPD 1/DMSO", "setting": "[17]", "result": 2.299}, {"measurement": "MEAN MS SIGNAL CMPD 1 6 H", "setting": "[17]", "result": 120169}, {"measurement": "CMPD 1/DMSO", "setting": "[18]", "result": 0.584}, {"measurement": "MEAN MS SIGNAL CMPD 1 6 H", "setting": "[18]", "result": 786663}, {"measurement": "CMPD 1/DMSO", "setting": "[19]", "result": 0.545}, {"measurement": "MEAN MS SIGNAL CMPD 1 6 H", "setting": "[19]", "result": 120796}, {"measurement": "CMPD 1/DMSO", "setting": "[20]", "result": 0.471}, {"measurement": "MEAN MS SIGNAL CMPD 1 6 H", "setting": "[20]", "result": 25519}, {"measurement": "CMPD 1/DMSO", "setting": "[21]", "result": 0.517}, {"measurement": "MEAN MS SIGNAL CMPD 1 6 H", "setting": "[21]", "result": 46469}, {"measurement": "CMPD 1/DMSO", "setting": "[22]", "result": 0.463}, {"measurement": "MEAN MS SIGNAL CMPD 1 6 H", "setting": "[22]", "result": 25654}, {"measurement": "CMPD 1/DMSO", "setting": "[23]", "result": 0.523}, {"measurement": "MEAN MS SIGNAL CMPD 1 6 H", "setting": "[23]", "result": 38083}, {"measurement": "CMPD 1/DMSO", "setting": "[24]", "result": 0.544}, {"measurement": "MEAN MS SIGNAL CMPD 1 6 H", "setting": "[24]", "result": 159179}, {"measurement": "CMPD 1/DMSO", "setting": "[25]", "result": 0.432}, {"measurement": "MEAN MS SIGNAL CMPD 1 6 H", "setting": "[25]", "result": 77526}, {"measurement": "CMPD 1/DMSO", "setting": "MCM4 peptide 69 - fSsppqmhssaipldfdvSsplTygtpssr - 98", "result": 0.605}]}]}
